{"source": "patent US8128958B2", "about": "“Sustained release pharmaceutical composition” (Astellas Pharma Inc., priority 2003, dated 2012)", "origin": "cited, not measured here", "key": {"[1]": {"experiment": "not given", "remark": "listed apart in the source"}}, "note": "Structures can show the parent of a compound that is named as a salt."}
{"smiles": "CCOc1ccccc1OCCN[C@H](C)Cc1ccc(OC)c(S(N)(=O)=O)c1", "note": "[tamsulosin hydrochloride, (R)(−)-5-[2-[[2-(o-ethoxyphenoxy)ethyl]-amino]propyl]-2-methoxybenzenesulfonamide]", "values": [{"measurement": "Cmax and AUC versus dose", "setting": "0.1 to 0.6 mg orally, healthy adult volunteers", "value": "increased almost in proportion to the dose administered"}, {"measurement": "day on which plasma concentration profiles reached the steady state", "setting": "repeatedly administered per os for seven days", "value": 4, "unit": "days"}, {"measurement": "adverse reactions (including abnormal clinical data) presumably related to the agent", "setting": "[1]; 104 cases among 4724 cases, research in use upon approval and post marketing surveillance in Japan", "value": 2.2, "unit": "%"}, {"measurement": "frequency of hypotension, postural hypotension, blood pressure, tachycardia and palpitation", "setting": "[1]; package insert, circulatory area", "value": "less than 0.1%"}, {"measurement": "frequency of orthostatic syncope, headache and sleepiness", "setting": "[1]; package insert, psychoneural area", "value": "less than 0.1%"}]}
